The results in this text go back to patent US6531477B1, “6-substituted pyrazolo [3,4-d] pyrimidin-4-ones useful as cyclin dependent kinase inhibitors” (DuPont Pharmaceuticals Company, priority 1998, dated 2003).

In turn, `CC(C)c1nn(-c2c(Cl)cc(Cl)cc2Cl)c2nc(Cc3ccccn3)[nH]c(=O)c12` [Example 60] came in with a melting point of 214 to 215 °C.

For `COc1cccc(Cc2nc3c(c(C(C)C)nn3-c3c(Cl)cc(S(N)(=O)=O)cc3Cl)c(=O)[nH]2)c1` [Example 225], the melting point fell in the range of 244 to 245 °C.

Turning to `COc1cccc(Cc2nc3c(c(CO)nn3-c3c(Cl)cc(Cl)cc3Cl)c(=O)[nH]2)c1` [Example 208], the melting point was 227 to 229 °C.

As for `Cc1ccc(Cc2nc3c(c(C(C)C)nn3-c3c(Cl)cc(Cl)cc3Cl)c(=O)[nH]2)cc1` [Example 62], the melting point lay in the range of 205 to 206 °C.

Turning to `CSc1nn(-c2c(Cl)cc(Br)cc2Cl)c2nc(Cc3ccc(O)cc3)[nH]c(=O)c12` [Example 180], the melting point was 255 to 256 °C.

For the molecule `CC(C)c1[nH]n(-c2c(Cl)cccc2Cl)c2nc(Cc3ccc(CC(=O)O)cc3)nc(=O)c1-2` [Example 123, 1-(2,6-Dichlorophenyl)-3-isopropyl-6-(4-(carboxymethyl)benzyl)pyrazolo[3,4-d]pyrimidin-4-one], the melting point was in the range of 212 to 214 °C.

As for `CCc1nn(-c2ccccc2Br)c2nc(Cc3ccc(N)cc3)[nH]c(=O)c12` [Example 152], the melting point was 246 to 249 °C.

Molecule `COc1ccc(Cc2nc3c(c(SC)nn3-c3c(C)cc(Cl)cc3Cl)c(=O)[nH]2)cc1` [Example 185] had a melting point of 252 to 255 °C.

In turn, `CC(C)c1nn(-c2c(Cl)cc(Cl)cc2Cl)c2nc(Cc3cnccc3Cl)[nH]c(=O)c12` [Example 69] gave a melting point of 245 to 248 °C.

On to `Cc1ccccc1Cc1nc2c(c(C(C)C)nn2-c2c(Cl)cc(Cl)cc2Cl)c(=O)[nH]1` [Example 63], for which the melting point lay in the range of 194 to 195 °C.

In the case of `CSc1nn(-c2c(F)cccc2Cl)c2nc(Cc3ccc(O)cc3)[nH]c(=O)c12` [Example 178], the melting point is 267 to 268 °C.

Take `CCc1nn(-c2ccccc2F)c2nc(Cc3ccc(N)cc3)[nH]c(=O)c12` [Example 157]: the melting point lay in the range of 231 to 233 °C.

Regarding `CCNC(=O)c1cc(Cl)c(-n2nc(CC)c3c(=O)[nH]c(Cc4cccc(OC)c4)nc32)c(Cl)c1` [Example 236], the melting point was 226 to 228 °C.

Molecule `CCc1nn(-c2c(Cl)cc(Br)cc2Cl)c2nc(Cc3ccc(O)cc3)[nH]c(=O)c12` [Example 169] gave a melting point of 284 to 286 °C.

`CCc1nn(-c2c(Cl)cc(Br)cc2Cl)c2nc(Cc3ccc(OC)cc3)[nH]c(=O)c12` [Example 175] yielded a melting point of 252 to 253 °C.

In turn, `CCc1nn(-c2c(Cl)cc(Cl)cc2Cl)c2nc(Cc3ccc(O)c([N+](=O)[O-])c3)[nH]c(=O)c12` [Example 26] yielded a melting point of 263 to 266 °C.

The molecule `CCc1nn(-c2c(Cl)cc(Cl)cc2Cl)c2nc(Cc3c[nH]c4ccc(OC)cc34)[nH]c(=O)c12` [Example 40] gave a melting point of 295 to 298 °C.

In turn, `COc1cccc(Cc2nc3c(c(SC)nn3-c3c(F)cccc3Cl)c(=O)[nH]2)c1` [Example 182] gave a melting point of 244 to 245 °C.

Molecule `COc1ccc(Cc2nc3c(c(SC)nn3-c3c(Cl)cc(Cl)cc3Cl)c(=O)[nH]2)cc1OC` [Example 6] yielded a melting point of 226 to 230 °C.

Consider `CC(C)c1nn(-c2c(Cl)cc(Cl)cc2Cl)c2nc(Cc3ccc(N)c(O)c3)[nH]c(=O)c12` [Example 55], for which the melting point is 210 to 217 °C (dec.).

`CC(C)c1nn(-c2c(Cl)cc(Cl)cc2Cl)c2nc(Cc3ccc(N)cc3)[nH]c(=O)c12` [Example 52]: the melting point lay within 223 to 225 °C.

`CCc1nn(-c2cc(C(F)(F)F)ccc2Cl)c2nc(Cc3cccc(O)c3)[nH]c(=O)c12` [Example 227] had a melting point of 227 to 229 °C.

For the molecule `CSc1nn(-c2c(Cl)cc(Cl)cc2Cl)c2nc(Cc3cccc([N+](=O)[O-])c3)[nH]c(=O)c12` [Example 7], the melting point lay in the range of 243 to 255 °C.

Molecule `COc1cccc(Cc2nc3n(-c4c(Cl)cc(Cl)cc4Cl)[nH]c(SC)c-3c(=O)n2)c1` [Example 1, 1-(2,4,6-Trichlorophenyl)-3-(methylthio)-6-(3-methoxybenzyl)pyrazolo[3,4-d]pyrimidin-4-one] yielded a melting point of 245 to 248 °C.

Molecule `CCc1nn(-c2c(C)cccc2Cl)c2nc(Cc3cccc(OC)c3)[nH]c(=O)c12` [Example 193] gave a melting point of 188 to 190 °C.

The molecule `CCc1nn(-c2c(Cl)cc(Br)cc2Cl)c2nc(Cc3cccc(O)c3)[nH]c(=O)c12` [Example 170] gave a melting point of 242 to 244 °C.

Molecule `CCc1nn(-c2ccccc2F)c2nc(Cc3cccc(O)c3)[nH]c(=O)c12` [Example 155] gave a melting point of 235 to 237 °C.

In turn, `CSc1nn(-c2ccccc2Cl)c2nc(Cc3ccc(O)cc3)[nH]c(=O)c12` [Example 149] gave a melting point of 243 to 244 °C.

The molecule `CCc1nn(-c2c(Cl)cccc2Cl)c2nc(Cc3ccc(O)cc3)[nH]c(=O)c12` [Example 171] gave a melting point of 262 to 263 °C.

For `CCc1nn(-c2c(Cl)cccc2Cl)c2nc(Cc3ccc(OC)cc3)[nH]c(=O)c12` [Example 176], the melting point lay in the range of 220 to 222 °C.

On to `CSc1nn(-c2c(F)cccc2Cl)c2nc(Cc3cccc(O)c3)[nH]c(=O)c12` [Example 179], for which the melting point lay in the range of 252 to 253 °C.

`COc1cccc(Cc2nc3n(-c4c(Cl)cc(C=O)cc4Cl)[nH]c(C(C)C)c-3c(=O)n2)c1` [Example 138, 1-(2,6-Dichloro-4-formylphenyl)-3-isopropyl-6-(3-methoxybenzyl)pyrazolo[3,4-d]pyrimidin-4-one] displayed a melting point of 212 to 214 °C.

For `CCc1[nH]n(-c2c(Cl)cc(Cl)cc2Cl)c2nc(C(O)c3ccccc3)nc(=O)c1-2` (racemic) [Example 117, (+/−)-1-(2,4,6-Trichlorophenyl)-3-ethyl-6-(α-hydroxybenzyl)pyrazolo[3,4-d]pyrimidin-4-one], the melting point fell in the range of 246 to 248 °C.

In turn, `CCc1nn(-c2c(Cl)cc(C(=O)O)cc2Cl)c2nc(Cc3ccc(N)cc3)[nH]c(=O)c12` [Example 205] came in with a melting point of 226 to 228 °C.

In the case of `Cc1ccncc1Cc1nc2c(c(C(C)C)nn2-c2c(Cl)cc(Cl)cc2Cl)c(=O)[nH]1` [Example 65], the melting point is 225 to 227 °C.

`CSc1nn(-c2c(C)cc(Cl)cc2Cl)c2nc(Cc3ccc(O)cc3)[nH]c(=O)c12` [Example 188] gave a melting point of 277 to 279 °C.

In the case of `CSc1nn(-c2c(Cl)cc(Cl)cc2Cl)c2nc(Cc3ccncc3)[nH]c(=O)c12` [Example 5], the melting point was in the range of 283 to 287 °C.

For the molecule `COc1ccc(Cc2nc3c(c(C(F)(F)F)nn3-c3c(Cl)cc(Cl)cc3Cl)c(=O)[nH]2)cc1` [Example 82], the melting point was in the range of 263 to 265 °C.

For the molecule `CC(C)c1nn(-c2ccccc2Cl)c2nc(Cc3cccc(O)c3)[nH]c(=O)c12` [Example 143], the melting point was in the range of 227 to 228 °C.

`COc1ccc(Cc2nc3c(c(SC)nn3-c3c(F)cccc3Cl)c(=O)[nH]2)cc1` [Example 181] yielded a melting point of 193 to 194 °C.

`Cc1cccc(Cl)c1-n1[nH]c(C(C)C)c2c(=O)nc(Cc3ccc(N)cc3)nc1-2` [Example 127, 1-(2-Chloro-6-methylphenyl)-3-isopropyl-6-(4-aminobenzyl)pyrazolo[3,4-d]pyrimidin-4-one] displayed a melting point of 206 to 207 °C.

Take `CCc1nn(-c2c(Cl)cccc2Cl)c2nc(Cc3cccc(OC)c3)[nH]c(=O)c12` [Example 177]: the melting point was in the range of 186 to 187 °C.

With `CCc1nn(-c2c(Cl)cc(Cl)cc2Cl)c2nc(Cc3cccc(CC(=O)O)c3)[nH]c(=O)c12` [Example 47], the melting point was in the range of 192 to 194 °C.

`CCc1nn(-c2c(Cl)cc(C(=O)O)cc2Cl)c2nc(Cc3ccc(O)cc3)[nH]c(=O)c12` [Example 196] registered a melting point of 308 to 310 °C.

`CSc1nn(-c2c(Cl)cc(Cl)cc2Cl)c2nc(Cc3ccc4c(c3)OCO4)[nH]c(=O)c12` [Example 13] yielded a melting point of 257 to 260 °C.

Consider `CCc1nn(-c2c(Cl)cccc2Cl)c2nc(Cc3cccc(O)c3)[nH]c(=O)c12` [Example 173], for which the melting point lay in the range of 242 to 244 °C.

For the molecule `CSc1[nH]n(-c2c(Cl)cc(Cl)cc2Cl)c2nc(Cc3cccc(O)c3)nc(=O)c1-2` [Example 2, 1-(2,4,6-Trichlorophenyl)-3-(methylthio)-6-(3-hydroxybenzyl)pyrazolo[3,4-d]pyrimidin-4-one], the melting point lay in the range of 264 to 266 °C.

The molecule `COc1ccc(Cc2nc3c(c(SC)nn3-c3c(Cl)cc(Cl)cc3Cl)c(=O)[nH]2)cc1` [Example 8] had a melting point of 263 to 267 °C.

In turn, `Cc1cccc(Cl)c1-n1nc(C(C)C)c2c(=O)[nH]c(Cc3ccc(N)cc3)nc21` [Example 199] returned a melting point of 205 to 206 °C.

As for `CC(C)c1[nH]n(-c2c(Cl)cc(Cl)cc2Cl)c2nc(Cc3ccc(NC(=O)OCCN(C)C)cc3)nc(=O)c1-2` [Example 133, 1-(2,4,6-Trichlorophenyl)-3-isopropyl-6-(4-(2-(dimethylamino)ethoxycarbonylamino)benzyl)pyrazolo[3,4-d]pyrimidin-4-one], the melting point lay within 218 to 220 °C.

The molecule `CC(C)c1[nH]n(-c2c(Cl)cccc2Cl)c2nc(Cc3ccc(CC(=O)NCCN(C)C)cc3)nc(=O)c1-2` [Example 124, 1-(2,6-Dichlorophenyl)-3-isopropyl-6-(4-(2-(N,N-dimethylamino)ethylaminocarbonylmethyl)benzyl)pyrazolo[3,4-d]pyrimidin-4-one] had a melting point of 170 to 172 °C.

`CCc1nn(-c2c(C)cc(Cl)cc2Cl)c2nc(Cc3ccc(OC)cc3)[nH]c(=O)c12` [Example 187] registered a melting point of 245 to 246 °C.

In turn, `CCc1nn(-c2c(Cl)cc(Br)cc2Cl)c2nc(Cc3cccc(OC)c3)[nH]c(=O)c12` [Example 174] gave a melting point of 232 to 233 °C.

Regarding `CC(C)c1nn(-c2c(Cl)cc(Cl)cc2Cl)c2nc(Cc3ccc(Br)cc3)[nH]c(=O)c12` [Example 59], the melting point was in the range of 229 to 230 °C.

In the case of `Cc1cc(Cl)cc(Cl)c1-n1nc(C(C)C)c2c(=O)[nH]c(Cc3ccc(N)cc3)nc21` [Example 217], the melting point lay within 212 to 213 °C.
